These results are taken from ChEMBL document CHEMBL5252552, “Defined concatenated α6α1β3γ2 GABAA receptor constructs reveal dual action of pyrazoloquinolinone allosteric modulators” (Bioorg Med Chem, 2019).

In assay [1] the target is T1, Gamma-aminobutyric acid receptor subunit alpha-1/alpha-6/beta-3/gamma-2 (Rattus norvegicus) (UniProt P18508+P30191+P62813+P63079). The assay is described as follows: Positive allosteric modulation of rat recombinant GABAA gamma2beta3alpha1-beta3alpha6 receptor expressed in Xenopus laevis oocytes assessed as maximal efficacy at -80 mV holding potential at 100 nM in presence of GABA EC1 to 1.5 by two-electrode voltage-clamp assay. The assay is classed as cell-based. The conditions noted are these: Oocyte, filed as positive allosteric modulator. Background: In two-electrode clamp one electrode senses voltage and the other passes current.

Assay [2] has as its target T2, Gamma-aminobutyric acid receptor subunit alpha-1/beta-3/gamma-2 (Rattus norvegicus) (UniProt P18508+P62813+P63079). Description: Positive allosteric modulation of rat recombinant GABAA alpha1beta3gamma2 receptor expressed in Xenopus laevis oocytes assessed as maximal efficacy at -80 mV holding potential at 3 uM in presence of GABA EC1 to 1.5 by two-electrode voltage-clamp assay. In kind it is cell-based. The conditions noted are these: Oocyte, filed as positive allosteric modulator.

Assay [3] has as its target T3, Gamma-aminobutyric acid receptor subunit alpha-1/beta-3/gamma-2 (Rattus norvegicus, UniProt P18508+P62813+P63079). Description: Positive allosteric modulation of rat recombinant GABAA alpha1beta3gamma2 receptor expressed in Xenopus laevis oocytes assessed as increase in GABA-induced current amplitude at -80 mV holding potential under less potent phase in presence of GABA EC1 to 1.5 by two-electrode voltage-clamp assay. The assay is classed as cell-based, Oocyte.

The target in assay [4] is T4, Gamma-aminobutyric acid receptor subunit alpha-6/beta-3/gamma-2 (Rattus norvegicus) (UniProt P18508+P30191+P63079). The assay is described as follows: Positive allosteric modulation of rat recombinant GABAA alpha6beta3alpha6-gamma2beta3 receptor expressed in Xenopus laevis oocytes assessed as maximal efficacy at -80 mV holding potential at 30 uM in presence of GABA EC1 to 1.5 by two-electrode voltage-clamp assay. As to conditions: Oocyte, filed as positive allosteric modulator. In kind it is cell-based.

Assay [5] addresses T1, Gamma-aminobutyric acid receptor subunit alpha-1/alpha-6/beta-3/gamma-2 (Rattus norvegicus). Description: Positive allosteric modulation of rat recombinant GABAA alpha6beta3alpha1-gamma2beta3 receptor expressed in Xenopus laevis oocytes assessed as maximal efficacy at -80 mV holding potential at 30 uM in presence of GABA EC1 to 1.5 by two-electrode voltage-clamp assay. The assay is classed as cell-based. As to conditions: Oocyte, filed as positive allosteric modulator.

Assay [6] concerns the target T2, Gamma-aminobutyric acid receptor subunit alpha-1/beta-3/gamma-2 (Rattus norvegicus). Description: Positive allosteric modulation of rat recombinant GABAA alpha1beta3alpha1-gamma2beta3 receptor expressed in Xenopus laevis oocytes assessed as maximal efficacy at -80 mV holding potential at 100 nM in presence of GABA EC1 to 1.5 by two-electrode voltage-clamp assay. In kind it is cell-based. As to conditions: Oocyte.

For assay [7] the target is unchanged. The assay is described as follows: Positive allosteric modulation of rat recombinant GABAA alpha1beta3gamma2 receptor expressed in Xenopus laevis oocytes assessed as maximal efficacy at -80 mV holding potential at 1 uM in presence of GABA EC1 to 1.5 by two-electrode voltage-clamp assay. In kind it is cell-based. The conditions noted are these: Oocyte.
Assay [8] concerns the target T4, Gamma-aminobutyric acid receptor subunit alpha-6/beta-3/gamma-2 (Rattus norvegicus). Description: Positive allosteric modulation of rat recombinant GABAA alpha6beta3alpha6-gamma2beta3 receptor expressed in Xenopus laevis oocytes assessed as maximal efficacy at -80 mV holding potential at 10 nM in presence of GABA EC1 to 1.5 by two-electrode voltage-clamp assay. In kind it is cell-based. The conditions noted are these: Oocyte.

Assay [9] deals with T2, Gamma-aminobutyric acid receptor subunit alpha-1/beta-3/gamma-2 (Rattus norvegicus). Description: Positive allosteric modulation of rat recombinant GABAA alpha1beta3alpha1-gamma2beta3 receptor expressed in Xenopus laevis oocytes assessed as maximal efficacy at -80 mV holding potential at 1 uM in presence of GABA EC1 to 1.5 by two-electrode voltage-clamp assay. The assay is classed as cell-based. As to conditions: Oocyte.

The target in assay [10] is T4, Gamma-aminobutyric acid receptor subunit alpha-6/beta-3/gamma-2 (Rattus norvegicus). The assay is described as follows: Positive allosteric modulation of rat recombinant GABAA alpha6beta3alpha6-gamma2beta3 receptor expressed in Xenopus laevis oocytes assessed as maximal efficacy at -80 mV holding potential at 1 nM in presence of GABA EC1 to 1.5 by two-electrode voltage-clamp assay. In kind it is cell-based. As to conditions: Oocyte.

The target is the same in assay [11]. The assay is described as follows: Positive allosteric modulation of rat recombinant GABAA alpha6beta3gamma2 receptor expressed in Xenopus laevis oocytes assessed as maximal efficacy at -80 mV holding potential at 10 uM in presence of GABA EC1 to 1.5 by two-electrode voltage-clamp assay. The assay is classed as cell-based. The conditions noted are these: Oocyte, filed as positive allosteric modulator.

Assay [12] deals with T2, Gamma-aminobutyric acid receptor subunit alpha-1/beta-3/gamma-2 (Rattus norvegicus). Description: Positive allosteric modulation of rat recombinant GABAA alpha1beta3alpha1-gamma2beta3 receptor expressed in Xenopus laevis oocytes assessed as maximal efficacy at -80 mV holding potential at 10 uM in presence of GABA EC1 to 1.5 by two-electrode voltage-clamp assay. The assay is classed as cell-based. As to conditions: Oocyte, filed as positive allosteric modulator.

Assay [13] addresses T1, Gamma-aminobutyric acid receptor subunit alpha-1/alpha-6/beta-3/gamma-2 (Rattus norvegicus). The assay is described as follows: Positive allosteric modulation of rat recombinant GABAA gamma2beta3alpha1-beta3alpha6 receptor expressed in Xenopus laevis oocytes assessed as maximal efficacy at -80 mV holding potential at 3 uM in presence of GABA EC1 to 1.5 by two-electrode voltage-clamp assay. The assay is classed as cell-based. The conditions noted are these: Oocyte, filed as positive allosteric modulator.

For assay [14], the target named is T2, Gamma-aminobutyric acid receptor subunit alpha-1/beta-3/gamma-2 (Rattus norvegicus). Description: Positive allosteric modulation of rat recombinant GABAA alpha1beta3gamma2 receptor expressed in Xenopus laevis oocytes assessed as maximal efficacy at -80 mV holding potential at 10 nM in presence of GABA EC1 to 1.5 by two-electrode voltage-clamp assay. The assay is classed as cell-based. As to conditions: Oocyte.

Assay [15] has the same target. Description: Positive allosteric modulation of rat recombinant GABAA alpha1beta3gamma2 receptor expressed in Xenopus laevis oocytes assessed as maximal efficacy at -80 mV holding potential at 30 uM in presence of GABA EC1 to 1.5 by two-electrode voltage-clamp assay. In kind it is cell-based. The conditions noted are these: Oocyte, filed as positive allosteric modulator.

The target in assay [16] is T4, Gamma-aminobutyric acid receptor subunit alpha-6/beta-3/gamma-2 (Rattus norvegicus). Description: Positive allosteric modulation of rat recombinant GABAA alpha6beta3gamma2 receptor expressed in Xenopus laevis oocytes assessed as maximal efficacy at -80 mV holding potential at 1 uM in presence of GABA EC1 to 1.5 by two-electrode voltage-clamp assay. In kind it is cell-based. The conditions noted are these: Oocyte, filed as positive allosteric modulator.

Assay [17] has the same target. Description: Positive allosteric modulation of rat recombinant GABAA alpha6beta3gamma2 receptor expressed in Xenopus laevis oocytes assessed as maximal efficacy at -80 mV holding potential at 10 nM in presence of GABA EC1 to 1.5 by two-electrode voltage-clamp assay. The assay is classed as cell-based. The conditions noted are these: Oocyte.
Assay [18] deals with T1, Gamma-aminobutyric acid receptor subunit alpha-1/alpha-6/beta-3/gamma-2 (Rattus norvegicus). Description: Positive allosteric modulation of rat recombinant GABAA gamma2beta3alpha1-beta3alpha6 receptor expressed in Xenopus laevis oocytes assessed as maximal current at -80 mV holding potential under more potent phase in presence of GABA EC1 to 1.5 by two-electrode voltage-clamp assay relative to control. In kind it is cell-based. The conditions noted are these: Oocyte.

The target of assay [19] is T3, Gamma-aminobutyric acid receptor subunit alpha-1/beta-3/gamma-2. The assay is described as follows: Positive allosteric modulation of rat recombinant GABAA alpha1beta3alpha1-gamma2beta3 receptor expressed in Xenopus laevis oocytes assessed as increase in GABA-induced current amplitude at -80 mV holding potential under less potent phase in presence of GABA EC1 to 1.5 by two-electrode voltage-clamp assay. The assay is classed as cell-based, Oocyte.

The target of assay [20] is T4, Gamma-aminobutyric acid receptor subunit alpha-6/beta-3/gamma-2 (Rattus norvegicus). The assay is described as follows: Positive allosteric modulation of rat recombinant GABAA alpha6beta3gamma2 receptor expressed in Xenopus laevis oocytes assessed as maximal efficacy at -80 mV holding potential at 300 nM in presence of GABA EC1 to 1.5 by two-electrode voltage-clamp assay. The assay is classed as cell-based. As to conditions: Oocyte, filed as positive allosteric modulator.

Assay [21] addresses T1, Gamma-aminobutyric acid receptor subunit alpha-1/alpha-6/beta-3/gamma-2 (Rattus norvegicus). Description: Positive allosteric modulation of rat recombinant GABAA alpha6beta3alpha1-gamma2beta3 receptor expressed in Xenopus laevis oocytes assessed as maximal efficacy at -80 mV holding potential at 30 nM in presence of GABA EC1 to 1.5 by two-electrode voltage-clamp assay. The conditions noted are these: Oocyte. The assay is classed as cell-based.

The target in assay [22] is T4, Gamma-aminobutyric acid receptor subunit alpha-6/beta-3/gamma-2 (Rattus norvegicus). Description: Positive allosteric modulation of rat recombinant GABAA alpha6beta3gamma2 receptor expressed in Xenopus laevis oocytes assessed as maximal efficacy at -80 mV holding potential at 1 nM in presence of GABA EC1 to 1.5 by two-electrode voltage-clamp assay. In kind it is cell-based. As to conditions: Oocyte.

The target in assay [23] is T2, Gamma-aminobutyric acid receptor subunit alpha-1/beta-3/gamma-2 (Rattus norvegicus). The assay is described as follows: Positive allosteric modulation of rat recombinant GABAA alpha1beta3alpha1-gamma2beta3 receptor expressed in Xenopus laevis oocytes assessed as maximal current at -80 mV holding potential under less potent phase in presence of GABA EC1 to 1.5 by two-electrode voltage-clamp assay relative to control. The assay is classed as cell-based. As to conditions: Oocyte, filed as positive allosteric modulator.

pEC50: −log10 of the molar value.

T3 sequence (P18508 whole entry): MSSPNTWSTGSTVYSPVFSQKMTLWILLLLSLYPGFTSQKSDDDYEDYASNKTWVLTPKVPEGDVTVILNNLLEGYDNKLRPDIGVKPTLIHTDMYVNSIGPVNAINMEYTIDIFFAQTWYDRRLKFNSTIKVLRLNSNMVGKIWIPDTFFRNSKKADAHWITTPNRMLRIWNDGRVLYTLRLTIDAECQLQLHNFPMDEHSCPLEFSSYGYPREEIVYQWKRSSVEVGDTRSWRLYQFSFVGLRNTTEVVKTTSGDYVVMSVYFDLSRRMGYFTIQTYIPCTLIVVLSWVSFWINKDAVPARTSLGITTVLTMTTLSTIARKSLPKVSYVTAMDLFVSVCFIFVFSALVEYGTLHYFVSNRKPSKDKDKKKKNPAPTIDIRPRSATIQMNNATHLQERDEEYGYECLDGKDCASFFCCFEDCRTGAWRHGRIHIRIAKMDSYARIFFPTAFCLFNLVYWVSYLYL
T3 sequence (P62813 whole entry): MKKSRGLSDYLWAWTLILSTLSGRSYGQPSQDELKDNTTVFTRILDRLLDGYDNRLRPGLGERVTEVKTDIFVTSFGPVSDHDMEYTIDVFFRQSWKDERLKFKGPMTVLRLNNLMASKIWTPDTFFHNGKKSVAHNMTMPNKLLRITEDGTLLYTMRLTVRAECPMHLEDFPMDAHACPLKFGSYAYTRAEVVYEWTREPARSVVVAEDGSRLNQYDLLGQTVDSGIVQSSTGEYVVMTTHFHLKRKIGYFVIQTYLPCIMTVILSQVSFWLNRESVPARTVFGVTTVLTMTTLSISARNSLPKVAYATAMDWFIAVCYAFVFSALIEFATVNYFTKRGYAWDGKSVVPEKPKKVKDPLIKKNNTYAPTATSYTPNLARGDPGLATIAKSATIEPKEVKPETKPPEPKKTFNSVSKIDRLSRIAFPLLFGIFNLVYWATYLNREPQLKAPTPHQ
T3 sequence (P63079 whole entry): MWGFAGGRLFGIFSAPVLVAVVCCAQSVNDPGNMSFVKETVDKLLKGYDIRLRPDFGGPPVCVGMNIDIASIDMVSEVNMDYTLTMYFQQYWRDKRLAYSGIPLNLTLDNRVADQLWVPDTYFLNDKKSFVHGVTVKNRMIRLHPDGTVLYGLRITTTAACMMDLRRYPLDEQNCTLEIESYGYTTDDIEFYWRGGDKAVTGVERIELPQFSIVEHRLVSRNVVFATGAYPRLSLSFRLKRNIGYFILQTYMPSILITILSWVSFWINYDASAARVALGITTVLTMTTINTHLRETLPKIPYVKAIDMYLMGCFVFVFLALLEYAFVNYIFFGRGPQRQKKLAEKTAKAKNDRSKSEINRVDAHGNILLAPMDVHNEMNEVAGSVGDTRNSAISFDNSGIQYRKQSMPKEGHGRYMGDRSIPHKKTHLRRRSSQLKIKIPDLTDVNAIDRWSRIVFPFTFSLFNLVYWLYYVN

Take `COc1ccc(-n2nc3c4ccc(Br)cc4[nH]cc-3c2=O)cc1`: the Efficacy in [1] is 45%; in assay [2] it was 54%; in assay [4] it was 570%; in assay [5], 838%; in assay [6], 8%; in assay [7], 18%. Further, the Efficacy was 33% in [8]; 34% in assay [9]; 5% in assay [10]; 585% in [11]; 157% in assay [12]; 89% in assay [13]. For the same compound, the Efficacy in [14] worked out at 1%; in [15], 109%; in [16], 185%; in assay [17], 24%; in [20] it was 121%; in assay [21], 8%. For the same compound, the Efficacy in assay [22] was 9%. In addition, the pEC50 in assay [3] was 5.22; in assay [19], 5.00. Moreover, the %max in assay [18] amounted to 30%; in [23], 342%.

As usually defined, the pEC50 is the EC50 on a negative log10 scale, so that one unit is a factor of ten.
